According to publication PMC12379159 (Journal of Natural Products, 2025):
Where a chain is given by its changes, count along the chain named.

How the values were obtained:
[1] = target: T1, hRORγ LBD (Homo sapiens, UniProt P51449); assay: Thermal stability by nano differential scanning fluorimetry (nanoDSF); type: binding; conditions: RORγ-LBD with 4 equiv ligand vs without ligand; mean ± SD
T1 construct: His tag (N, cleaved yes); made in house; host or cells: Escherichia coli BL21 DE3
T1 sequence (P51449 264-518): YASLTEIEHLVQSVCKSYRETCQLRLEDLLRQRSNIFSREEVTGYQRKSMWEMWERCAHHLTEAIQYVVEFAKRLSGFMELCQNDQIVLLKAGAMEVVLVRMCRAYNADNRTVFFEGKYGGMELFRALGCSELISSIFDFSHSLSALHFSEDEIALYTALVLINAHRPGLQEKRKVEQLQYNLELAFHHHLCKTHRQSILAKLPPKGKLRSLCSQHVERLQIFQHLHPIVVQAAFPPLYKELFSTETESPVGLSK
Protocol: Soluble proteins were purified on Ni Hitrap FFcrude column (Cytiva), followed by His tag removal by thrombin (MP Biomedicals) cleavage and by size exclusion chromatography on HiLoad Superdex200 column (Cytiva) equilibrated in 20 mM Tris-HCl pH 7.5, 150 mM NaCl, 1 mM TCEP (Hampton Research). Purity and homogeneity of the hRORγ LBD were assessed by SDS-PAGE. The purified protein was concentrated to 0.5–1.0 mg/mL with an Amicon Ultra 10 kDa MWCO. The aliquots of purified LBD were incubated with 4 equiv ligands or vehicle for thermal stability experiments.
Fluorescence-based thermal experiments were performed using a Prometheus NT.48 (NanoTemper Technologies, Germany) with grade standard capillaries containing 10 μL of RORγLBD with different ligands. […] NanoTemper PR. Stability Analysis v1.0.2 was used to fit the data and determine the melting temperatures Tm.

[2] = system: HEK293 cells; assay: Resazurin conversion assay in HEK293 cells; type: cell-based, human; conditions: 5 μM, 18 h
Protocol: (§1) To check the metabolic activity of cells correlating with cell viability, cells were treated with the vehicle control (0.1% DMSO), digitonin as the positive control for cytotoxicity at 20 μg/mL (HEK293 cells) or 50 μg/mL (EL-4-mRORγt cells), or the compounds of interest at 5 μM for 18 h (HEK293 cells) or 20–24 h (EL-4-mRORγt cells). The next day, the medium was carefully removed and replaced with stripped DMEM without phenol red, containing 10 μg/mL resazurin sodium salt. Cells were incubated for 5 h before RFU values were measured at λem = 590 nm using a spectrophotometer. Cell viability was calculated as follows: Cell viability(%)=100×RFU value after compound treatment/RFU value after vehicle control treatment Cytotoxicity was defined as cell viability under 70% according to the ISO 10993–5 guidelines. Cell viability <90% is explicitly stated in the respective figure.

[3] = target: T2, Gal4-RORγ H479L (Homo sapiens, UniProt P51449, H479L); assay: Gal4-RORγ H479L mutant luciferase assay; conditions: 5 μM
T2 sequence (P51449 269-508 H479L limits assumed): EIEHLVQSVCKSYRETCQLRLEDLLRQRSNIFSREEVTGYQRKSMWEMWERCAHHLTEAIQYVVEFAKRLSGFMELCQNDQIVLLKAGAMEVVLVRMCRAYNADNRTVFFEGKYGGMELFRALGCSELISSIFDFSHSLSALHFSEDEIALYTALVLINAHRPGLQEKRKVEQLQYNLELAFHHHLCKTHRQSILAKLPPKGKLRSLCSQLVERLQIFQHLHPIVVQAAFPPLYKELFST
Protocol: Gal4-hRORγ H323A and H479L mutants were generated using the QuikChange Lightning Site-Directed Mutagenesis Kit according to the manufacturer’s instructions. Briefly, 10 ng template DNA (Gal4-hRORγ) was PCR-amplified with the respective mutagenic forward and reverse primers listed in Table S3, which were designed using the QuikChange Primer Design tool (https://www.agilent.com/store/primerDesignProgram.jsp). […] Two μL of the PCR product were then transformed into XL1-Blue competent E. coli according to a protocol provided by NEB. […] After centrifuging the main culture at 5691g for 10 min, the supernatant was decanted, and plasmid preparation was performed using the PureLink HiPure Plasmid Midiprep Kit according to the manufacturer’s instructions. DNA yields and purities were checked using a NanoDrop 2000c (Thermo Fisher Scientific, Waltham, MA, USA).

[4] = system: Il17a and Il17f (Il17a/f); assay: RT-qPCR of Il17a and Il17f in EL-4-mRORγt cells; type: cell-based, murine; conditions: 5 μM, 20–24 h, then 4.5-h PMA and ionomycin
Protocol: For RT-qPCR assays, 5 × 10^5 EL-4-mRORγt cells were seeded in 500 μL complete DMEM per well of a 24-well plate and treated with the vehicle control, the positive control, or the compounds of interest. After incubation for 20–24 h, cells were stimulated with Cell Activation Cocktail (PMA: 40.5 μM, ionomycin: 669.3 μM; 500X) for 4.5 h. Afterward, total RNA was isolated using the innuPREP RNA Mini Kit 2.0 according to the manufacturer’s instructions. According to the manufacturer’s instructions, 1 μg RNA was reverse-transcribed into cDNA using the High-Capacity cDNA Reverse Transcription Kit. RT-qPCR was performed using the Luna Universal qPCR Master Mix on a LightCycler 480 (Roche Diagnostics, Rotkreuz, Switzerland) according to the manufacturer’s instructions. […] Livak’s 2−ΔΔCt method was employed to determine the expression levels of RORγ target genes. This involved normalizing the target gene expression to the expression levels of the control gene 18s, followed by further normalization to the vehicle control.

[5] = target: T3, Gal4-hRORγ (Homo sapiens, UniProt P51449); assay: Gal4-RORγ mammalian one-hybrid luciferase assay; type: cell-based; conditions: HEK293 cells
T3 construct: Encodes for a hRORγ-LBD:Gal4-DBD fusion protein; expressed in transfected cells; host or cells: HEK293
T3 sequence (P51449 269-508 limits assumed): T2 sequence (P51449 269-508 H479L limits assumed) with L211H
Protocol: (§2) For luciferase assays, 8 × 10^6 HEK293 cells were seeded on 150 mm cell culture dishes and incubated for 5 h. Afterward, cells were transfected with the calcium phosphate coprecipitation method using 5 μg of the nuclear receptor (Gal4-hRORγ or full-length human RORγ), 5 μg of a luciferase reporter (pTK-MH100 × 4-LUC for Gal4-hRORγ experiments or RORE-LUC for full-length human RORγ experiments) and 3 μg eGFP-N1 (for assessing transfection efficiency) plasmid DNA and incubated overnight. […] The medium was changed the following day, and cells were further incubated for another four to 5 h before trypsin/EDTA was added to detach them from the dishes. […] RLUs were normalized to relative fluorescence units (RFU) to account for differences in cell number and transfection efficiency and then normalized to the vehicle control. Results are expressed as fold activation relative to the vehicle control.
(§3) Concentration–response data were analyzed in GraphPad Prism version 10 by three-parameter logistic nonlinear regression, with the Hill slope constrained to a theoretical value of −1.0. An IC50 value was determined only for compounds yielding a statistically reliable fit. […] In these cases, only the maximal inhibition achieved at the highest tested concentration (I max(%) at 5 μM) is reported, calculated as follows: Imax(%)=(1−Bottom/Top)×100 (“top” = baseline activity measured at the lowest concentration, “bottom” = residual activity observed at the highest concentration, corresponding to the maximal inhibitory effect).

[6] = system: EL-4-mRORγt cells; assay: Resazurin conversion assay in EL-4-mRORγt cells; type: cell-based, murine; conditions: 5 μM, 20-24 h
Protocol: as §1

[7] = target: T4, full-length human RORγ (Homo sapiens, UniProt P51449); assay: Full-length RORγ luciferase assay (RORE-LUC reporter); type: cell-based; conditions: HEK293 cells, 5 μM
T4 construct: Encodes for the full-length human RORγ; expressed in transfected cells; host or cells: HEK293
T4 sequence (P51449 1-518): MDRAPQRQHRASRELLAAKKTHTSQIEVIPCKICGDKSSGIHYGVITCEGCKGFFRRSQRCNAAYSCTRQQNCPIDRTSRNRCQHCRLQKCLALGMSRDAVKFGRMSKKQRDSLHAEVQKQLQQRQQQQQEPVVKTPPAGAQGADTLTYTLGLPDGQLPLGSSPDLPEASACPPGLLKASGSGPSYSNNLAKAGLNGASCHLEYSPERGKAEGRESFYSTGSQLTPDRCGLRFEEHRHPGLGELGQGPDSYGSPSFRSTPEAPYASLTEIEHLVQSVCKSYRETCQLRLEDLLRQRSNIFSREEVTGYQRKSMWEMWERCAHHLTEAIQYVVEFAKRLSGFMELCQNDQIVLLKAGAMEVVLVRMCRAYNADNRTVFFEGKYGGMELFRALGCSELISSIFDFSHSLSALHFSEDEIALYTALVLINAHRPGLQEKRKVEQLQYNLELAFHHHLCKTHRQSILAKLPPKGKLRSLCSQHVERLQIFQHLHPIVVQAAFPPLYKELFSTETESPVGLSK
Protocol: as §2, §3

## C=C(C)[C@@H]1CC[C@]2(C(=O)O)CC[C@]3(C)[C@H](CC[C@@H]4[C@@]5(C)CC[C@H](O)C(C)(C)[C@@H]5CC[C@]43C)[C@@H]12 [Betulinic acid, reference compound]
[1]
  ΔTm measured with nano differential scanning fluorimetry: 9.1 ± 0.2 °C
[2]
  Cytotoxic effects, resazurin conversion assay: no cytotoxic effects
[3]
  Activity on Gal4-RORγ H479L vs WT: notable decrease in activity
[4]
  Il17a/f expression: reduction of Il17a/f expression
[5]; 5 μM
  Imax(%) at 5 μM, Gal4-RORγ luciferase assay: 47%
[5]; 18 h treatment, up to 5 μM
  IC50: 1200 nM
[6]
  Cytotoxic effects, resazurin conversion assay: no cytotoxic effects
[7]
  Imax(%) at 5 μM, full-length RORγ luciferase assay: 38%
